# Experimental data: patent US7498353B2, “Heterocyclic anti-viral compounds comprising metabolizable moieties and their uses” (priority 2005, dated 2009)
# System: HCV NS5A protein in 9-13 replicon cells
# Assay: Quantitative Western blot replicon assay (HEPC_REPLICON-ICWESTERN)
# Format: cell-based, Hepatitis C virus (HCV)
# Conditions: Hepatitis C virus, read-out: HEPC_REPLICON-ICWESTERN Result Value (IC50)
# Experimental: Alternatively, the inhibitory activity of the metabolically active agents of the prodrugs can be confirmed using a quantitative Western immunoblot assay utilizing antibodies specific for HCV non-structural proteins, such as NS3, NS4A NS5A and NS5B. In one embodiment of this assay, replicon cells are treated with varying concentrations of test prodrug to determine the concentration of the metabolically active agent of the test prodrug that yields a 50% reduction in the amount of a non-structural protein produced as compared to a control sample (IC50). A single non-structural protein may be quantified or multiple non-structural proteins may be quantified. Antibodies suitable for carrying out such immunoblot assays are available commercially (e.g., from BIODESIGN International, Saco, Me.).
# Certain prodrugs of the invention, which may inhibit HCV translation or replication prior to metablism and/or are metabolized into active agents, were also tested for their ability to inhibit HCV replication using a quantitative Western blot analysis with antibodies specific for the HCV NS5A or other non-structural proteins. Actively dividing 9-13 replicon cells were seeded into 6-well plates at a density of 1×10^5 cells/well in a volume of 2 ml/well and incubated at 37° C. and 5% CO2 for 24 hours. Various concentrations of test prodrugs (in a volume of 10 ul) were added to the wells and the cells incubated for another 48 hours. Protein samples were prepared from the cultured cells, resolved on a SDS-PAGE gel and transferred to a nitrocellulose membrane. The membrane was blocked with 5% non-fat milk in PBS for 1 hour at room temperature. Primary antibody (anti NS5A antibody; BIODESIGN International, Saco, Me.) incubation was performed for 1 hour at room temperature, after which the membrane was washed 3 times (for 15 min per time) with PBST (PBS plus 0.1% Tween 20). Horseradish peroxidase conjugated secondary antibody incubation was performed for 1 hour at room temperature and the membrane was washed 3 times (for 15 min per time) with PBST. The membrane was then soaked in substrate solution (Pierce) and exposed to a film or quantified using an imager. In this assay, the amount of test prodrug that is believed to be transformed into an active agent under the given conditions that yielded a 50% reduction in the amount of NS5A protein translated as compared to a control sample (IC50) was determined.
row,SMILES,IC50 [µM]
1,"CCOP(=O)(CCC(=O)CCN(C(=O)C(Cl)Cl)c1ccnc(-c2cc(-c3c(Cl)cccc3Cl)no2)c1)OCC [Cpd. No. 11, Diethyl 5-(2,2-Dichloro-N-(2-(3-(2,6-dichlorophenyl)isoxazol-5-yl)pyridin-4-yl)acetamido)-3-oxopentylphosphonate]",< 1

# Same assay, conditions: Hepatitis C virus; 9-13 replicon cells, 50% reduction in NS5A protein; read-out: HEPC_REPLICON-ICWESTERN Result Value (IC50)
row,SMILES,IC50 [µM]
1,"NC(CCC(=O)O)C(=O)CCN(C(=O)C(Cl)Cl)c1ccnc(-c2cc(-c3c(Cl)cccc3Cl)no2)c1 (stereo not drawn) [Cpd. No. 4, 4-Amino-7-(2,2-dichloro-N-(2-(3-(2,6-dichlorophenyl)isoxazol-5-yl)pyridin-4-yl)acetamido)-5-oxoheptanoic Acid]",< 1
2,"CCOC(=O)CN(C(=O)C(Cl)Cl)c1ccnc(-c2cc(-c3c(Cl)cccc3Cl)no2)c1 [Cpd. No. 8, Ethyl 2-(2,2-Dichloro-N-(2-(3-(2,6-dichlorophenyl)isoxazol-5-yl)pyridin-4-yl)acetamido)acetate]",1 to 20
3,"CCC(C)OCN(C(=O)C(Cl)Cl)c1ccnc(-c2cc(-c3c(Cl)cccc3Cl)no2)c1 (stereo not drawn) [Cpd. No. 10, N-(sec-Butoxymethyl)-2,2-dichloro-N-(2-(3-(2,6-dichlorophenyl)isoxazol-5-yl)pyridin-4-yl)acetamide]",1 to 20
4,"COC(=O)CCN(C(=O)C(Cl)Cl)c1cccc(-c2cc(-c3c(Cl)cccc3Cl)no2)c1 [Cpd. No. 12, Methyl 3-(2,2-Dichloro-N-(3-(3-(2,6-dichlorophenyl)isoxazol-5-yl)phenyl)acetamido)propanoate]",> 20
5,"N#CCCN(C(=O)C(Cl)Cl)c1cccc(-c2cc(-c3c(Cl)cccc3Cl)no2)c1 [Cpd. No. 13, 2,2-Dichloro-N-(2-cyanoethyl)-N-(3-(3-(2,6-dichlorophenyl)isoxazol-5-yl)phenyl)acetamide]",> 20
6,"CC(C)(C)OC(=O)NCCN(C(=O)C(Cl)Cl)c1cccc(-c2cc(-c3c(Cl)cccc3Cl)no2)c1 [Cpd. No. 14, tert-Butyl 2-(2,2-Dichloro-N-(3-(3-(2,6-dichlorophenyl)isoxazol-5-yl)phenyl)acetamido)ethylcarbamate]",> 20
7,"CC(C)(C)OC(=O)N[C@H](C(=O)NCCN(C(=O)C(Cl)Cl)c1cccc(-c2cc(-c3c(Cl)cccc3Cl)no2)c1)c1ccccc1 [Cpd. No. 17, (S)-tert-Butyl 2-(2-(2,2-Dichloro-N-(3-(3-(2,6-dichlorophenyl)isoxazol-5-yl)phenyl)acetamido)ethylamino)-2-oxo-1-phenylethylcarbamate]",> 20
8,"N[C@@H](C(=O)NCCN(C(=O)C(Cl)Cl)c1cccc(-c2cc(-c3c(Cl)cccc3Cl)no2)c1)c1ccccc1 [Cpd. No. 20, (R)-N-(2-(2-Amino-2-phenylacetamido)ethyl)-2,2-dichloro-N-(3-(3-(2,6-dichlorophenyl)isoxazol-5-yl)phenyl)acetamide]",1 to 20
9,"CC(C)[C@@H](CN(C(=O)C(Cl)Cl)c1cccc(-c2cc(-c3c(Cl)cccc3Cl)no2)c1)NC(=O)OC(C)(C)C [Cpd. No. 21, (S)-tert-Butyl 1-(2,2-Dichloro-N-(3-(3-(2,6-dichlorophenyl)isoxazol-5-yl)phenyl)acetamido)-3-methylbutan-2-ylcarbamate]",1 to 20
10,"CC(C)[C@@H](CN(C(=O)C(Cl)Cl)c1cccc(-c2cc(-c3c(Cl)cccc3Cl)no2)c1)NC(=O)[C@@H](NC(=O)OC(C)(C)C)c1ccccc1 [Cpd. No. 22, tert-Butyl (S)-2-((S)-1-(2,2-Dichloro-N-(3-(3-(2,6-dichlorophenyl)isoxazol-5-yl)phenyl)acetamido)-3-methylbutan-2-ylamino)-2-oxo-1-phenylethylcarbamate]",1 to 20
11,"CC(C)[C@@H](CN(C(=O)C(Cl)Cl)c1cccc(-c2cc(-c3c(Cl)cccc3Cl)no2)c1)NC(=O)[C@H](NC(=O)OC(C)(C)C)c1ccccc1 [Cpd. No. 23, tert-Butyl (R)-2-((S)-1-(2,2-Dichloro-N-(3-(3-(2,6-dichlorophenyl)isoxazol-5-yl)phenyl)acetamido)-3-methylbutan-2-ylamino)-2-oxo-1-phenylethylcarbamate]",1 to 20
12,"CC(C)[C@@H](CN(C(=O)C(Cl)Cl)c1cccc(-c2cc(-c3c(Cl)cccc3Cl)no2)c1)NC(=O)C1CC(O)CN1C(=O)OC(C)(C)C (stereo partly drawn) [Cpd. No. 24, tert-Butyl 2-((S)-1-(2,2-Dichloro-N-(3-(3-(2,6-dichlorophenyl)isoxazol-5-yl)phenyl)acetamido)-3-methylbutan-2-ylcarbamoyl)-4-hydroxypyrrolidine-1-carboxylate]",1 to 20
13,"CC(C)[C@@H](CN(C(=O)C(Cl)Cl)c1cccc(-c2cc(-c3c(Cl)cccc3Cl)no2)c1)NC(=O)CN(C)C(=O)OC(C)(C)C [Cpd. No. 25, (S)-tert-Butyl 2-(1-(2,2-Dichloro-N-(3-(3-(2,6-dichlorophenyl)isoxazol-5-yl)phenyl)acetamido)-3-methylbutan-2-ylamino)-2-oxoethyl(methyl)carbamate]",1 to 20
14,"CC(C)[C@@H](CN(C(=O)C(Cl)Cl)c1cccc(-c2cc(-c3c(Cl)cccc3Cl)no2)c1)NC(=O)[C@H](CCC(=O)OC(C)(C)C)NC(=O)OC(C)(C)C [Cpd. No. 26, (S)-tert-Butyl 4-(tert-Butoxycarbonylamino)-5-((S)-1-(2,2-dichloro-N-(3-(3-(2,6-dichlorophenyl)isoxazol-5-yl)phenyl)acetamido)-3-methylbutan-2-ylamino)-5-oxopentanoate]",1 to 20
15,"CC(C)(C)OC(=O)CC[C@H](NC(=O)OC(C)(C)C)C(=O)NCCN(C(=O)C(Cl)Cl)c1cccc(-c2cc(-c3c(Cl)cccc3Cl)no2)c1 [Cpd. No. 32, (S)-tert-Butyl 4-(tert-Butoxycarbonylamino)-5-(2-(2,2-dichloro-N-(3-(3-(2,6-dichlorophenyl)isoxazol-5-yl)phenyl)acetamido)ethylamino)-5-oxopentanoate]",> 20
16,"CC(C)(C)OC(=O)N1CC(O)C[C@H]1C(=O)NCCN(C(=O)C(Cl)Cl)c1cccc(-c2cc(-c3c(Cl)cccc3Cl)no2)c1 (stereo partly drawn) [Cpd. No. 33, (2S)-tert-Butyl 2-(2-(2,2-Dichloro-N-(3-(3-(2,6-dichlorophenyl)isoxazol-5-yl)phenyl)acetamido)ethylcarbamoyl)-4-hydroxypyrrolidine-1-carboxylate]",> 20
17,"O=C(NCCN(C(=O)C(Cl)Cl)c1cccc(-c2cc(-c3c(Cl)cccc3Cl)no2)c1)[C@@H]1CC(O)CN1 (stereo partly drawn) [Cpd. No. 34, (2S)-N-(2-(2,2-Dichloro-N-(3-(3-(2,6-dichlorophenyl)isoxazol-5-yl)phenyl)acetamido)ethyl)-4-hydroxypyrrolidine-2-carboxamide]",> 20
18,"N[C@@H](CCC(=O)O)C(=O)NCCN(C(=O)C(Cl)Cl)c1cccc(-c2cc(-c3c(Cl)cccc3Cl)no2)c1 [Cpd. No. 35, (S)-4-Amino-5-(2-(2,2-dichloro-N-(3-(3-(2,6-dichlorophenyl)isoxazol-5-yl)phenyl)acetamido)ethylamino)-5-oxopentanoic Acid]",> 20
19,"CNCC(=O)NCCN(C(=O)C(Cl)Cl)c1cccc(-c2cc(-c3c(Cl)cccc3Cl)no2)c1 [Cpd. No. 36, 2,2-Dichloro-N-(3-(3-(2,6-dichlorophenyl)isoxazol-5-yl)phenyl)-N-(2-(2-(methylamino)acetamido)ethyl)acetamide]",1 to 20
20,"CC(C)[C@H](N)C(=O)NCCN(C(=O)C(Cl)Cl)c1cccc(-c2cc(-c3c(Cl)cccc3Cl)no2)c1 [Cpd. No. 37, (S)-2-Amino-N-(2-(2,2-dichloro-N-(3-(3-(2,6-dichlorophenyl)isoxazol-5-yl)phenyl)acetamido)ethyl)-3-methylbutanamide]",1 to 20
